# In US20240189221A1, “METHODS AND FORMULATIONS FOR TREATING VASCULAR DISEASE” (ENDOPERFUSION SOLUTIONS, LLC, priority 2015, published 2024):
# System: Human artery smooth muscle cells
# Assay: Smooth muscle cell proliferation (cell count by flow cytometry)
# Type: cell-based
# Conditions: 0.01-1 μM, 48 h; FIG. 6, FIG. 7A
# Method: Human artery smooth muscle cells were seeded at 20,000 cells per well on 24-well plates (3 wells per condition) in growth medium and allowed to adhere overnight at 37° C. […] Cells were washed with PBS, trypsinized, and counted using a flow cytometer (Beckman-Coulter FC500).
smiles,measurement,value
"COCc1c(C(C)C)nc(C(C)C)c(/C=C/[C@@H](O)C[C@@H](O)CC(=O)O)c1-c1ccc(F)cc1 [free cerivastatin, (3R,5S,6E)-7-[4-(4-fluorophenyl)-5-(methoxymethyl)-2,6-bis(propan-2-yl)pyridin-3-yl]-3,5-dihydroxyhept-6-enoic acid]",proliferation of SMCs,inhibits the proliferation of SMCs
